One data set deals with Rattus norvegicus. In words: Acute toxicity in rat at 2500 to 5000 mg/kg, po. On the set-up: dose 2500-5000 mg/kg, route oral. The conditions noted are these: in vivo. The format is organism-based.
The subject of data set [1] is Lepidium sativum. In words: Herbicidal activity against Lepidium sativum assessed as inhibition of radicle growth of seeds at 1 to 2 ppm after 69 to 75 hrs in dark. On the set-up: scale not given: the % may be the effect or the level left. The format is functional.
A short description of data set [2]: Toxicity in ip dosed mouse. Format: organism-based. The settings on record: in vivo.
For data set [3], the system named is Lepidium sativum. In words: Herbicidal activity against Lepidium sativum assessed as inhibition of radicle growth of seed at 3 to 4 ppm after 69 to 75 hrs in dark. Format: functional, organism-based.
The subject of data set [4] is Lepidium sativum. In words: Herbicidal activity against Lepidium sativum assessed as occurrence of browning and tissue necrosis. Format: functional, organism-based.

The source made the active and inactive calls. The calls are words filed in the database; no cut-off is given here.

`COC1=C2C[C@@H](C)C[C@H](OC)[C@H](O)[C@@H](C)/C=C(\C)[C@H](OC(N)=O)[C@@H](OC)/C=C\C=C(/C)C(=O)NC(=CC1=O)C2=O` [GELDANAMYCIN]: the Activity result with Rattus norvegicus is “Toxic”; in the data set with Lepidium sativum [1], 50%. This molecule came in with a 50% lethal dose (LD50) in data set [2] of 1 mg/kg. The result with Lepidium sativum [3] was Active.

As for `CO[C@@H]1C[C@@H](C[C@H]2CC[C@H](C)[C@H]([C@@H](C)C(=O)O)O2)O[C@]2(O[C@](C)([C@H]3CC[C@@](C)([C@@H]4O[C@@H]([C@H]5O[C@@](O)(CO)[C@H](C)C[C@@H]5C)C[C@@H]4C)O3)C[C@H]2C)[C@@H]1C` [NIGERICIN], the Activity in the data set with Lepidium sativum [1] amounted to 50%. This molecule had an LD50 in data set [2] of 10 mg/kg. Besides, the result with Lepidium sativum [3] was Active. Moreover, in the data set on Lepidium sativum [4], the result was inactive.

(Values after ChEMBL document CHEMBL1149017, “Herbicidal effects of geldanamycin and nigericin, antibiotics from Streptomyces hygroscopicus” (J Nat Prod, 1986).)
